Patent US9675065B2 (priority 2011, dated 2017)
Entries after “also recorded” stand apart in the source; their conditions may differ.

Tests used:
[1] = tested on: S. aureus (Staphylococcus aureus ATCC#6538); type: cell-based
Staphylococcus aureus = type: cell-based; details: pH 7
[2] = 10 ml of 5 wt % stock solution + 100 microliters acidified silver chloride, ceramic cylinder

Compound	rate of kill / biocide efficacy (in words) [1]	biocide efficacy (in words) (Staphylococcus aureus)	gas formation on the test cylinder [2]
furoyl chlorate	excellent rate of kill; also recorded: excellent biocide efficacy	no antimicrobial efficacy	
OO [hydrogen peroxide]			slow formation of gas
